# Results from US11731972B2, “Spiro compounds as glycosidase inhibitors” (Asceneuron SA, priority 2018, dated 2023).
# Biological target: His-Tagged hOGA (human O-GlcNAcase) (Homo sapiens (Human), UniProt O60502)
# Assay: Human O-GlcNAcase enzyme inhibition assay (Example B01)
# Assay type: biochemical
# Conditions: OGA enzyme inhibition assay; FL-GlcNAc substrate, 60 min, room temperature, pH 6.5
# Method: Example B01: Human O-GlcNAcase Enzyme Inhibition Assay
# 5 μl of the appropriate concentration of a solution of inhibitor in McIlvaine's Buffer (pH 6.5) in 2% DMSO (for a dose response curve calculation) is added into each well of a 384-well plate (Greiner, 781900). Then, 20 nM of His-Tagged hOGA and 10 μM of FL-GlcNAc (Fluorescein mono-beta-D-(2-deoxy-2-N-acetyl) glucopyranoside; Marker Gene Technologies Inc, M1485) were added to the 384-well plate for a final volume of 20 μl. After incubation for 60 min at room temperature, the reaction was terminated by the addition of 10 μL of stop buffer (200 mM glycine, pH 10.75). The level of fluorescence (λexc 485 nm; (λemm 520 nm) was read on a PHERAstar machine. The amount of fluorescence measured was plotted against the concentration of inhibitor to produce a sigmoidal dose response curve to calculate an IC50. All individual data was corrected by subtraction of the background (Thiamet 3 uM=100% inhibition) whilst 0.5% DMSO was considered as the control value (no inhibition).
# His-Tagged hOGA (human O-GlcNAcase), sequence (O60502 whole entry): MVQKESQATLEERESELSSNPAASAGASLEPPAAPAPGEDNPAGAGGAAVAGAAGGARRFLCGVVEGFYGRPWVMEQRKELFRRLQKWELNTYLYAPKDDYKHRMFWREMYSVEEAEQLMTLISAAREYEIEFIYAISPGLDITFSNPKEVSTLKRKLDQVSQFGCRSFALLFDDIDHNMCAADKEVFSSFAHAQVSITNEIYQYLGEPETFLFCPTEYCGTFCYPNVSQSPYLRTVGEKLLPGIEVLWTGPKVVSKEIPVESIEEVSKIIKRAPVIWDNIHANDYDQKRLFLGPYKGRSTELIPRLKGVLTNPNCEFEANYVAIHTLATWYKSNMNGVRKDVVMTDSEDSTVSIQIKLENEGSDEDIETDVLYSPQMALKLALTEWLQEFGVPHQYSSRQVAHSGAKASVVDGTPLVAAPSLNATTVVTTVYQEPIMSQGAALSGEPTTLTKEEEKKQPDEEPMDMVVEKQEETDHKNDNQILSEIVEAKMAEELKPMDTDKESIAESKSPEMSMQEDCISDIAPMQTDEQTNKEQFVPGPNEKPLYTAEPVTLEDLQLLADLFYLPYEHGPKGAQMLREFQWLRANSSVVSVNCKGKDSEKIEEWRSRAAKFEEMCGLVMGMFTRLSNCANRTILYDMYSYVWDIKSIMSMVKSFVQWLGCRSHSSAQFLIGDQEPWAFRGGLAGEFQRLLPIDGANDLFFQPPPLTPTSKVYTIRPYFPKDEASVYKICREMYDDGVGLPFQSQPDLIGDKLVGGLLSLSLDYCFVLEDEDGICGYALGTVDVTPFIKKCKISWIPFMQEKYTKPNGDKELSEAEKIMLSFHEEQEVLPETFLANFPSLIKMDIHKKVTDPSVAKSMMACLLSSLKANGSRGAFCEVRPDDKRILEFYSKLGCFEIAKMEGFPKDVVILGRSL
row,SMILES,IC50 [nM]
1,"CC(c1ccc2scnc2c1)N1CCC2(CCN(Cc3ccc(C#N)cc3)C2=O)CC1 (racemic) [Example 26, 4-((8-(1-(benzo[d]thiazol-5-yl)ethyl)-1-oxo-2,8-diazaspiro[4.5]decan-2-yl)methyl)benzonitrile]",200 to 1000
2,"CC(c1ccc2c(c1)OCC2)N1CCC2(CC1)NC(=O)N(c1ccc(C#N)cc1)C2=O (racemic) [Example 12, 4-(8-(1-(2,3-dihydrobenzofuran-6-yl)ethyl)-2,4-dioxo-1,3,8-triazaspiro[4.5]decan-3-yl)benzonitrile]",< 50
3,"CC(c1ccc2c(c1)OCC2)N1CCC2(CC1)CC(=O)N(Cc1ccc(S(C)(=O)=O)cc1)C2 (racemic) [Example 18, 8-(1-(2,3-dihydrobenzofuran-6-yl)ethyl)-2-(4-(methylsulfonyl)benzyl)-2,8-diazaspiro[4.5]decan-3-one]",200 to 1000
4,"CC(c1ccc2scnc2c1)N1CCC2(CC1)CCN(S(C)(=O)=O)C2 (racemic) [Example 31, 5-(1-(2-(methylsulfonyl)-2,8-diazaspiro[4.5]decan-8-yl)ethyl) benzo[d]thiazole]",1000 to 10000
5,"CC(c1ccc2scnc2c1)N1CCC2(CC1)C(=O)Nc1ccccc12 (racemic) [Example 20, 1′-(1-(benzo[d]thiazol-5-yl)ethyl)spiro[indoline-3,4′-piperidin]-2-one]",200 to 1000
6,"CC(c1ccc2scnc2c1)N1CCC2(CC1)CN(c1ccc(C#N)cc1)C(=O)N2 (racemic) [Example 34, 4-(8-(1-(benzo[d]thiazol-5-yl)ethyl)-2-oxo-1,3,8-triazaspiro[4.5]decan-3-yl)benzonitrile]",50 to 200
7,"CC(c1ccc2scnc2c1)N1CCC2(CC1)CC(=O)N(c1ccc(C#N)cc1)C2 (racemic) [Example 15, 4-(8-(1-(benzo[d]thiazol-5-yl)ethyl)-3-oxo-2,8-diazaspiro[4.5]decan-2-yl)benzonitrile]",1000 to 10000
8,"CC(c1ccc2scnc2c1)N1CCC2(CC1)C(=O)N(Cc1ccc(C#N)cc1)c1ccccc12 (racemic) [Example 29, 4-((1′-(1-(benzo[d]thiazol-5-yl)ethyl)-2-oxospiro[indoline-3,4′-piperidin]-1-yl)methyl)benzonitrile]",200 to 1000
9,"CC(c1ccc2scnc2c1)N1CCC2(CCN(c3ccc(C#N)cc3)C2)CC1 (racemic) [Example 28, 4-(8-(1-(benzo[d]thiazol-5-yl)ethyl)-2,8-diazaspiro[4.5]decan-2-yl) benzonitrile]",200 to 1000
10,"CC(c1ccc2scnc2c1)N1CCC2(CC1)C(=O)N(Cc1ccc(C#N)cc1)C(=O)N2Cc1ccc(C#N)cc1 (racemic) [Example 23, 4,4′-((8-(1-(benzo[d]thiazol-5-yl)ethyl)-2,4-dioxo-1,3,8-triazaspiro[4.5]decane-1,3-diyl)bis(methylene))dibenzonitrile]",200 to 1000
11,CC(c1ccc2c(c1)OCC2)N1CCC2(CC1)C(=O)N(Cc1ccc(C#N)cc1)C(=O)N2C (racemic) [Example 74],1000 to 10000
12,CC(c1ccc2c(c1)OCC2)N1CCC2(CC1)C(=O)N(c1ccc(C#N)cc1)C(=O)N2C (racemic) [Example 76],1000 to 10000
13,"CC(c1ccc2scnc2c1)N1CCC2(CC1)CN(Cc1ccc(C#N)cc1)C(=O)N2 (racemic) [Example 32, 4-((8-(1-(benzo[d]thiazol-5-yl)ethyl)-2-oxo-1,3,8-triazaspiro[4.5]decan-3-yl)methyl)benzonitrile]",50 to 200
14,"CC(c1ccc2scnc2c1)N1CCC2(CCN(c3ccc(C#N)cc3)C2=O)CC1 (racemic) [Example 27, 4-(8-(1-(benzo[d]thiazol-5-yl)ethyl)-1-oxo-2,8-diazaspiro[4.5]decan-2-yl)benzonitrile]",200 to 1000
15,"CC(c1ccc2scnc2c1)N1CCC2(CC1)C(=O)N(Cc1ccc(S(C)(=O)=O)cc1)C(=O)N2Cc1ccc(S(C)(=O)=O)cc1 (racemic) [Example 24, 8-(1-(benzo[d]thiazol-5-yl)ethyl)-1,3-bis(4-(methylsulfonyl)benzyl)-1,3,8-triazaspiro[4.5]decane-2,4-dione]",200 to 1000
16,"CC(c1ccc2scnc2c1)N1CCC2(CC1)NC(=O)N(c1ccc(C#N)cc1)C2=O (racemic) [Example 13, 4-(8-(1-(benzo[d]thiazol-5-yl)ethyl)-2,4-dioxo-1,3,8-triazaspiro[4.5]decan-3-yl)benzonitrile]",50 to 200
17,CC(c1ccc2scnc2c1)N1CCC2(CC1)CC(=O)N(c1ncccn1)C2 (racemic) [Example 73],1000 to 10000
18,"CC(c1ccc2c(c1)OCC2)N1CCC2(CC1)C(=O)Nc1ccccc12 (racemic) [Example 21, 1′-(1-(2,3-dihydrobenzofuran-6-yl)ethyl)spiro[indoline-3,4′-piperidin]-2-one]",200 to 1000
19,"CC(c1ccc2c(c1)OCC2)N1CCC2(CC1)CC(=O)N(c1ccc(C#N)cc1)C2 (racemic) [Example 19, 4-(8-(1-(2,3-dihydrobenzofuran-6-yl)ethyl)-3-oxo-2,8-diazaspiro[4.5]decan-2-yl)benzonitrile]",1000 to 10000
20,"CC(c1ccc2c(c1)OCC2)N1CCC2(CC1)C(=O)N(Cc1ccc(C#N)cc1)C(=O)N2Cc1ccc(C#N)cc1 (racemic) [Example 30, 4,4′-((8-(1-(2,3-dihydrobenzofuran-6-yl)ethyl)-2,4-dioxo-1,3,8-triazaspiro[4.5]decane-1,3-diyl)bis(methylene))dibenzonitrile]",200 to 1000

# The next lines start with the values.
row,IC50 [nM],SMILES
1,200 to 1000,"Cc1cc(N2CCC3(CCN(C(C)c4ccc5scnc5c4)CC3)C2)n2nccc2n1 (racemic) [Example 14, 5-(1-(2-(5-methylpyrazolo[1,5-a]pyrimidin-7-yl)-2,8-diazaspiro[4.5]decan-8-yl)ethyl)benzo[d]thiazole]"
2,50 to 200,Cc1cc(CN2C(=O)NC3(CCN(C(C)c4ccc5scnc5c4)CC3)C2=O)ccn1 (racemic) [Example 67]
3,50 to 200,CC(=O)Nc1ncc(CN2CCC3(CC2)NC(=O)N(Cc2ccc(C)nc2)C3=O)s1 (racemic) [IA3]
4,50 to 200,Cc1ccc(N2C(=O)NC3(CCN(C(C)c4ccc5scnc5c4)CC3)C2=O)cn1 (racemic) [Example 61]
5,200 to 1000,CC(=O)Nc1ncc(CN2CCC3(CC2)CC(=O)N(c2ccc(C#N)cc2)C3)s1 (racemic) [IA7]
6,1000 to 10000,"CC(c1ccc2scnc2c1)N1CCC2(CC1)NC(=O)NC2=O (racemic) [Example 3, 8-(1-(benzo[d]thiazol-5-yl)ethyl)-1,3,8-triazaspiro[4.5]decane-2,4-dione]"
7,< 50,CSc1cnc(N2CC3(CCN(Cc4cnc(NC(C)=O)s4)CC3)NC2=O)nc1 (racemic) [IA6]
8,< 50,CC(=O)Nc1ncc(CN2CCC3(CC2)NC(=O)N(Cc2cc(C)nc(C)c2)C3=O)s1 (racemic) [IA4]
9,50 to 200,CC(c1ccc2scnc2c1)N1CCC2(CC1)NC(=O)N(Cc1ccc(S(C)(=O)=O)cc1)C2=O (centres unmarked) [Example 10]
10,1000 to 10000,CC(c1ccc2scnc2c1)N1CCC2(CC1)C(=O)N(Cc1ccc(S(C)(=O)=O)cc1)C(=O)N2C (racemic) [Example 77]
11,1000 to 10000,CC(c1ccc2scnc2c1)N1CCC2(CC1)C(=O)N(Cc1ccc(C#N)cc1)C(=O)N2C (racemic) [Example 75]
12,50 to 200,CC(c1ccc2scnc2c1)N1CCC2(CC1)NC(=O)N(Cc1ccc(C(F)(F)F)nc1)C2=O (racemic) [Example 8]
13,50 to 200,"CC(c1ccc2scnc2c1)N1CCC2(CC1)NC(=O)N(Cc1ccc(C#N)cc1)C2=O (racemic) [Example 22, 4-((8-(1-(benzo[d]thiazol-5-yl)ethyl)-2,4-dioxo-1,3,8-triazaspiro[4.5]decan-3-yl)methyl)benzonitrile]"
14,200 to 1000,"CC(c1ccc2scnc2c1)N1CCC2(CC1)NC(=O)N(C)C2=O (racemic) [Example 1, 8-(1-(benzo[d]thiazol-5-yl)ethyl)-3-methyl-1,3,8-triazaspiro[4.5]decane-2,4-dione]"
15,< 50,CC(=O)Nc1ncc(CN2CCC3(CC2)NC(=O)N(Cc2ccnc(C)c2)C3=O)s1 (racemic) [IA5]
16,50 to 200,CC(=O)Nc1ncc(CN2CCC3(CC2)NC(=O)N(c2cc(C)nc(C)c2)C3=O)s1 (racemic) [IA2]
17,50 to 200,CC(c1ccc2c(c1)OCC2)N1CCC2(CC1)NC(=O)N(Cc1ccc(C(F)(F)F)nc1)C2=O (racemic) [Example 9]
18,200 to 1000,"CC(c1ccc2c(c1)OCC2)N1CCC2(CC1)NC(=O)N(C)C2=O (racemic) [Example 2, 8-(1-(2,3-dihydrobenzofuran-6-yl)ethyl)-3-methyl-1,3,8-triazaspiro[4.5]decane-2,4-dione]"
19,50 to 200,CC(=O)Nc1ncc(CN2CCC3(CC2)NC(=O)N(Cc2ccc(C(F)(F)F)nc2)C3=O)s1 [IA1]
20,50 to 200,CC(c1ccc2scnc2c1)N1CCC2(CC1)NC(=O)N(c1cccc(S(C)(=O)=O)c1)C2=O (racemic) [Example 64]
21,50 to 200,CC(c1ccc2scnc2c1)N1CCC2(CC1)NC(=O)N(c1ccc(Cl)cc1)C2=O (racemic) [Example 65]
22,1000 to 10000,"Cc1cc(N2CC3(CCN(C(C)c4ccc5c(c4)OCC5)CC3)CC2=O)n2nccc2n1 (racemic) [Example 16, 8-(1-(2,3-dihydrobenzofuran-6-yl)ethyl)-2-(5-methylpyrazolo[1,5-a]pyrimidin-7-yl)-2,8-diazaspiro[4.5]decan-3-one]"
23,50 to 200,Cc1cc(CN2C(=O)NC3(CCN(C(C)c4ccc5scnc5c4)CC3)C2=O)cc(C)n1 (racemic) [Example 66]
24,< 50,Cc1cc(N2C(=O)NC3(CCN(C(C)c4ccc5scnc5c4)CC3)C2=O)cc(C)n1 (racemic) [Example 60]
